One data set in a line: in vitro. The note with it: human, liver microsomes. (In general: Microsomes from liver hold many membrane-bound enzymes, among them those of drug oxidation.)
The nature of another data set: physchem. The note with it: SGF buffer.

≈ marks a conversion by molar mass, not a printed value.

Broadly, the CLint scaled is a measure of how fast metabolising enzymes remove a compound, apart from limits set by blood flow. The low end stands for greater metabolic stability, the high end for faster metabolism. Broadly, the solubility is the dissolved amount per volume that the medium holds. A high value points to much dissolved substance. In “in vitro”, `COc1cccc(F)c1-c1nccc(C(=O)Nc2cc(F)c3c(cnn3C)c2N2C[C@@H](N)C[C@H]2CO)n1` had a CLint scaled at 0.5 h of more than 18.3 mL/min/kg. The same compound yielded a solubility in the data set “physchem” of 350 µg/mL (≈ 687 µM).

For the origin of these results see ChEMBL document CHEMBL5223170, “Potent and Selective Biaryl Amide Inhibitors of Hematopoietic Progenitor Kinase 1 (HPK1)” (ACS Med Chem Lett, 2023).
